From patent US4343808A, “Method of inhibiting sickling of sickle erythrocytes” (The Dow Chemical Company, priority 1980, dated 1982)

Columns and labels:
[1] = system: sickle erythrocytes (intact sickle cells); assay: Blockade Erythrocyte Morphology, deoxygenation induced sickling; format: cell-based, human; details: for interference with deoxygenation induced sickling: Table 1
Method: (§1) The compound 2-((4-cyanophenoxy)methyl)-2-imidazoline p-toluenesulfonate (Example 2) and 2-((3-cyanophenoxy)methyl)-2-imidazoline p-toluenesulfonate (Example 4) were tested for anti-sickling activity using a suspension of intact sickle cells as follows:
(§2) Blood collected from individuals with homozygous sickle cell disease, as well as normal blood, was anticoagulated with ethylenediaminetetraacetic acid (EDTA) and refrigerated until used. To portions of the blood samples were added appropriate volumes of a solution of the compound to be tested so that final concentrations of 0.0125 molar (M), 0.025 M, 0.05 M or 0.1 M were obtained, and the mixtures were incubated at 37° C. for 30 minutes. The test compounds were dissolved in saline. Appropriate volumes of saline were added to the control samples. Urea in invert sugar (UIS) at 0.05 M to 1.5 M concentrations was used as an agent capable of transforming sickled cells into normal forms and was therefore used as a positive control.
(§3) Anoxic sickling (deoxygenation) was induced by exposing sickle blood to a hydrated 95% nitrogen, 5% carbon dioxide atmosphere for 60 minutes.
(§4) After the sickling stimulus, slides were prepared. A volume of 0.2 ml of sickled cells were fixed in 1.0 ml of 3.2% glutaraldehyde in 0.1 M cacodylic buffer. Wet slides were prepared and sealed.
(§5) The slides were scored for normal cells (Typ.), atypical cells (Atyp.) and sickled cells (Sickle) on the basis of counting 300 cells per slide.

[2] = molecular target: Hb-S (Homo sapiens, UniProt P68871+P69905, E7V); assay: Oxygen-Affinity Assay (whole Hb-S blood); format: cell-based; details: 37° C.
Method: The compounds described herein were tested in an "Oxygen-Affinity Assay" to measure the ability of the compound to influence the Hb-S oxygen affinity. There is a relationship between oxygen binding and Hb-S gelation and thus a measure of oxygen affinity is an index of Hb-S aggregation within the red blood cell. Hemoglobin S polymers decrease the overall oxygen affinity. Thus a return to normal of Hb-S oxygen affinity is a measure of decreased gelation.
For measurements of oxygen equilibria whole Hb-S blood was equilibrated in a tonometer at 37° C. and measurements were made in the presence of a 10 millimolar (mM) concentration of the test compound. Some of the compounds were also tested at a 5 mM concentration. The whole blood pH, oxygen tension, and blood PO2 were measured.
The percentage of oxygen saturation was plotted against the partial pressure of oxygen (mm Hg). The P50 value (oxygen tension at 50% saturation) was determined for each control and treated whole blood sample and the difference (ΔP50) between the control and treated whole blood sample noted. As used herein, a negative ΔP50 represents a change toward a normal Hb-S oxygen affinity and thus is a measure of the test compound's ability to inhibit the sickling of sickle erythrocytes.

[3] = molecular target: T1, deoxyhemoglobin S (Deoxy Hb-S) (Homo sapiens, UniProt P68871+P69905, E7V); assay: Solubility of deoxyhemoglobin S (hemoglobin gelation); format: biochemical; details: 10 mM
T1 construct: native tetramer alpha2 betaS2
Method: The compound 2-((3-cyanophenoxy)methyl)-2-imidazoline p-toluenesulfonate was tested to determine its ability to inhibit sickle erythrocyte hemoglobin gelation as follows:
The solubility of deoxyhemoglobin S (Deoxy Hb-S) was determined utilizing substantially the same procedure described by Behe, M. J., Englander, S. W., Biochemistry 18: 4196-4201 (1979). Assays were done to determine the equilibrium solubility of Hb-S in the presence of inhibitor (i.e., test compound). […] Test mixtures were placed in a 4 centimeter (cm) length of thin quartz tubing sealed at one end, and then incubated at 37° C. for two hours to achieve gelation, and then re-equilibrated in a water bath (20° C.) for 20 minutes. The quartz tubing containing the test mixture was then placed in a glycerol filled centrifuge tube (topped by a rubber ring to center the quartz tubing) and centrifuged for two hours at 140,000 times gravity. […] The concentration of the hemoglobin in the supernatant was determined by measuring the absorbance at 540 nanometers (nm) after a 300-fold dilution with normally oxygenated buffer.
The Relative Solubility is a measure of the ability of the test compound to increase the solubility of deoxyhemoglobin S and is readily determined by comparing the solubility of the treated (i.e., test compound present) sample versus the control (i.e., test compound absent) sample.

[4] = system: sickle erythrocytes (intact sickle cells); assay: Blockade Erythrocyte Morphology, chemically induced sickling (sodium metabisulfite); format: cell-based, human
Method: as §1, §2
(§6) Sickling was induced chemically by reducing the blood samples with an equal volume of a 2% solution of sodium metabisulfite in phosphate-buffered saline for 30 minutes.
as §4, §5

[5] = system: sickle erythrocytes (sickle cell blood); assay: Reverse Erythrocyte Morphology, deoxygenation induced sickling; format: cell-based, human
Method: as §2, §3, §4, §5
(§7) The compound 2-((4-cyanophenoxy)methyl)-2-imidazoline p-toluenesulfonate (Example 2) was tested for its ability to reverse the sickling process by first applying the hereinabove noted sickling stimuli to the sickle cell blood and then adding the test compound to the red cell suspensions.

[6] = system: sickle erythrocytes (sickle cell blood); assay: Reverse Erythrocyte Morphology, chemically induced sickling (sodium metabisulfite); format: cell-based, human
Method: as §2, §6, §4, §5, §7

[7] = Toxicity (LD50) in mice; details: mouse, in vivo, ip, intraperitoneal injection
[8] = Homo sapiens, Erythrocyte, deoxygenation, 0.025 M, vs control, read-out: Percent Change, Sickle (sickled cells)
[9] = Homo sapiens, Erythrocyte, deoxygenation, 0.05 M, vs control, read-out: Percent Change, Sickle (sickled cells)
[10] = deoxygenation, 0.0125 M, vs control
[11] = deoxygenation, 0.025 M, vs control
[12] = deoxygenation, 0.05 M, vs control
[13] = deoxygenation, 0.1 M, vs control
[14] = over the ranges tested (0.025-0.1 M)
[15] = reverse, deoxygenation, 0.025 M, vs control
[16] = reverse, deoxygenation, 0.05 M, vs control
[17] = reverse, deoxygenation, 0.1 M, vs control
[18] = reverse, chemically induced, 0.025 M, vs control
[19] = reverse, chemically induced, 0.05 M
[20] = reverse, chemically induced, 0.05 M, vs control
[21] = reverse, chemically induced, 0.1 M
[22] = reverse, chemically induced, 0.1 M, vs control

SMILES: Cc1ccc(S(=O)(=O)O)cc1.N#Cc1cccc(OCC2=NCCN2)c1 [Example 4, 2-((3-cyanophenoxy)methyl)-2-imidazoline p-toluenesulfonate]
- inhibition at 12500 µM ([1]; Homo sapiens, Erythrocyte, deoxygenation, 0.0125 M, vs control, read-out: Percent Change, Sickle (sickled cells)): 33%
- inhibition at 25000 µM [1, 8]: 69%
- inhibition at 50000 µM [1, 9]: 77%
- interference with deoxygenation induced sickling [1]: interfered with deoxygenation induced sickling
- Lysis ([1]; deoxygenation, 0.0125 M): -
- Percent Change, Atyp. (atypical cells) [1, 10]: -65%
- Percent Change, Typ. (normal cells) [1, 10]: +201%
- Lysis ([1]; deoxygenation, 0.025 M): -
- Percent Change, Atyp. (atypical cells) [1, 11]: -78%
- Percent Change, Typ. (normal cells) [1, 11]: +316%
- Lysis ([1]; deoxygenation, 0.05 M): -
- cell lysis (in words) ([1]; deoxygenation, 0.05 M): without the appearance of cell lysis
- Percent Change, Atyp. (atypical cells) [1, 12]: -74%
- Percent Change, Typ. (normal cells) [1, 12]: +407%
- Δ P50 (oxygen tension at 50% saturation, difference control vs treated) ([2]; 5 mM): -1 mm Hg
- Δ P50 (oxygen tension at 50% saturation, difference control vs treated) ([2]; 10 mM): -13.7 mm Hg
- solubility of deoxyhemoglobin S (in words) [3]: increased

SMILES: Cl.FC(F)(F)c1cccc(OCC2=NCCN2)c1 [Example 7, 2-(3-Trifluoromethylphenoxy)methyl-2-imidazoline Hydrochloride]
- Δ P50 (oxygen tension at 50% saturation, difference control vs treated) ([2]; 10 mM): -3.0 mm Hg

SMILES: CSc1ccc(OCC2=NCCN2)cc1C [Example 5, 2-((4-(Methylthio)-m-tolyloxy)methyl)-2-imidazoline]
- Δ P50 (oxygen tension at 50% saturation, difference control vs treated) ([2]; 5 mM): -11 mm Hg
- Δ P50 (oxygen tension at 50% saturation, difference control vs treated) ([2]; 10 mM): -14.7 mm Hg

SMILES: Cl.c1ccc(OCC2=NCCN2)cc1 [Example 8, 2-(Phenoxymethyl)-2-imidazoline Hydrochloride]
- Δ P50 (oxygen tension at 50% saturation, difference control vs treated) ([2]; 10 mM): -5.0 mm Hg

SMILES: CS(=O)(=O)c1ccc(OCC2=NCCN2)cc1.Cl [Example 3, 2-((4-(Methylsulfonyl)phenoxy)methyl)-2-imidazoline Hydrochloride]
- Δ P50 (oxygen tension at 50% saturation, difference control vs treated) ([2]; 10 mM): -7.0 mm Hg

SMILES: O=[N+]([O-])c1cccc(OCC2=NCCN2)c1 [Example 1]
- Δ P50 (oxygen tension at 50% saturation, difference control vs treated) ([2]; 5 mM): -2 mm Hg
- Δ P50 (oxygen tension at 50% saturation, difference control vs treated) ([2]; 10 mM): -10.6 mm Hg

SMILES: Cc1ccc(S(=O)(=O)O)cc1.N#Cc1ccc(OCC2=NCCN2)cc1 [Example 2, 2-((4-Cyanophenoxy)methyl)-2-imidazoline p-Toluenesulfonate]
- inhibition at 25000 µM [1, 8]: 19%
- inhibition at 50000 µM [1, 9]: 27%
- inhibition at 100000 µM ([1]; Homo sapiens, Erythrocyte, deoxygenation, 0.1 M, vs control, read-out: Percent Change, Sickle (sickled cells)): 61%
- interference with deoxygenation induced sickling [1]: interfered with deoxygenation induced sickling
- Lysis ([1]; deoxygenation, 0.025 M): -
- Percent Change, Atyp. (atypical cells) [1, 11]: -36%
- Percent Change, Typ. (normal cells) [1, 11]: +86%
- Lysis ([1]; deoxygenation, 0.05 M): -
- cell lysis (in words) ([1]; deoxygenation, 0.05 M): without the appearance of cell lysis
- Percent Change, Atyp. (atypical cells) [1, 12]: -36%
- Percent Change, Typ. (normal cells) [1, 12]: +106%
- Lysis ([1]; deoxygenation, 0.1 M): ± (the appearance of some cell lysis at that particular test compound concentration)
- Percent Change, Atyp. (atypical cells) [1, 13]: -39%
- Percent Change, Typ. (normal cells) [1, 13]: +170%
- sickling inhibitory effect in the chemically induced test system [4]: slightly sickling inhibitory effect
- Lysis ([4]; 0.025 M): -
- Percent Change, Atyp. (atypical cells) ([4]; 0.025 M, vs control): -14%
- Percent Change, Typ. (normal cells) ([4]; 0.025 M, vs control): +56%
- Lysis ([4]; 0.05 M): -
- Percent Change, Atyp. (atypical cells) ([4]; 0.05 M, vs control): +138%
- Percent Change, Typ. (normal cells) ([4]; 0.05 M, vs control): +84%
- Lysis ([4]; 0.1 M): ± (the appearance of some cell lysis at that particular test compound concentration)
- Percent Change, Atyp. (atypical cells) ([4]; 0.1 M, vs control): -63%
- Percent Change, Typ. (normal cells) ([4]; 0.1 M, vs control): +78%
- inhibition at 25000 µM ([4]; Homo sapiens, Erythrocyte, 0.5 h, 0.025 M, vs control, read-out: Percent Change, Sickle (sickled cells)): 27%
- inhibition at 50000 µM ([4]; Homo sapiens, Erythrocyte, 0.5 h, 0.05 M, vs control, read-out: Percent Change, Sickle (sickled cells)): 29%
- inhibition at 100000 µM ([4]; Homo sapiens, Erythrocyte, 0.5 h, 0.1 M, vs control, read-out: Percent Change, Sickle (sickled cells)): 32%
- inhibition at 25000 µM ([5]; Homo sapiens, Erythrocyte, reverse, deoxygenation, 0.025 M, vs control, read-out: Percent Change, Sickle (sickled cells)): 47%
- inhibition at 50000 µM ([5]; Homo sapiens, Erythrocyte, reverse, deoxygenation, 0.05 M, vs control, read-out: Percent Change, Sickle (sickled cells)): 46%
- inhibition at 100000 µM ([5]; Homo sapiens, Erythrocyte, reverse, deoxygenation, 0.1 M, vs control, read-out: Percent Change, Sickle (sickled cells)): 41%
- reversal of sickling induced by deoxygenation [5, 14]: effectively reversed sickling
- Lysis ([5]; reverse, deoxygenation, 0.025 M): -
- Percent Change, Atyp. (atypical cells) [5, 15]: -22%
- Percent Change, Typ. (normal cells) [5, 15]: +133%
- Lysis ([5]; reverse, deoxygenation, 0.05 M): -
- Percent Change, Atyp. (atypical cells) [5, 16]: -26%
- Percent Change, Typ. (normal cells) [5, 16]: +142%
- Lysis ([5]; reverse, deoxygenation, 0.1 M): ± (the appearance of some cell lysis at that particular test compound concentration)
- hemolysis (in words) ([5]; reverse, deoxygenation, 0.1 M): some hemolysis observed
- Percent Change, Atyp. (atypical cells) [5, 17]: -46%
- Percent Change, Typ. (normal cells) [5, 17]: +202%
- inhibition at 25000 µM ([6]; Homo sapiens, Erythrocyte, reverse, chemically induced, 0.025 M, vs control, read-out: Percent Change, Sickle (sickled cells)): 27%
- inhibition at 50000 µM ([6]; Homo sapiens, Erythrocyte, reverse, chemically induced, 0.05 M, vs control, read-out: Percent Change, Sickle (sickled cells)): 52%
- inhibition at 100000 µM ([6]; Homo sapiens, Erythrocyte, reverse, chemically induced, 0.1 M, vs control, read-out: Percent Change, Sickle (sickled cells)): 48%
- reversal of sickling induced chemically [6, 14]: effectively reversed sickling
- Lysis ([6]; reverse, chemically induced, 0.025 M): -
- Percent Change, Atyp. (atypical cells) [6, 18]: -49%
- Percent Change, Typ. (normal cells) [6, 18]: +48%
- Lysis [6, 19]: ± (the appearance of some cell lysis at that particular test compound concentration)
- hemolysis (in words) [6, 19]: some hemolysis observed
- Percent Change, Atyp. (atypical cells) [6, 20]: -73%
- Percent Change, Typ. (normal cells) [6, 20]: +87%
- Lysis [6, 21]: ± (the appearance of some cell lysis at that particular test compound concentration)
- hemolysis (in words) [6, 21]: some hemolysis observed
- Percent Change, Atyp. (atypical cells) [6, 22]: -96%
- Percent Change, Typ. (normal cells) [6, 22]: +86%
- Δ P50 (oxygen tension at 50% saturation, difference control vs treated) ([2]; 10 mM): -9.1 mm Hg
- LD50 [7]: 316 mg/kg

SMILES: Cl.FC(F)(F)c1cccc(NCC2=NCCN2)c1 [Example 6, 2-((3-Trifluoromethylanilino)methyl)-2-imidazoline Hydrochloride]
- Δ P50 (oxygen tension at 50% saturation, difference control vs treated) ([2]; 10 mM): -4.3 mm Hg
